PMC9921896 (Molecules, 2023)

Assay: Metabolite identification (MetID) in hepatocytes by LC-MS/MS
Assay type: in vitro ADME, human
Settings: 80 min incubation, HR LC-MS/MS, metabolite M1, parent ion m/z 551 (375 + 176)
Text: However, on the contrary, these metabolites can also be formed with higher or equivalent toxicity when compared to the parent ligand. Therefore, to gain such an understanding of metabolite toxicity, 223-2 TbB ligand was shortlisted for metabolite identification (MetID) studies as it was the least prominent CYP inhibitor among the three TbB ligands studied for CYP inhibition, as discussed in earlier sections. The metabolites’ detection and identification were accomplished by utilizing the high-resolution LC-MS/MS (HR LC-MS/MS) technique and the obtained fragmentation pattern was subsequently analyzed to propose putative structures as discussed in the following paragraph. MetID studies was initiated first for the parent 223-2 ligand by HR LC-MS/MS as its fragmentation understanding could act as a guide to potentially identify the metabolites formed after incubation with hepatocytes. Since the 223-2 TbB ligand contain N and O atoms, it could be easily protonated and it was sensitive in positive ionization mode. Consequently, it was studied using the positive fragmentation pattern by ESI-MS ^n .
To understand the fragmentation pattern of the parent compound, EPI spectrum was analyzed. […] Next, TbB ligand 223-2 was incubated (80 min) with hepatocytes and a new metabolite (M1) could be detected when compared with the control (0 min). […]

metabolite detected after incubation with hepatocytes: formation of glucuronide
Structure (SMILES): COc1cc(-c2nnn(-c3cc(OC)c(O)c(OC)c3)n2)cc(OC)c1O [223-2]
